Test results from patent US12239627B2, “Method of treating conditions related to the PGI2 receptor” (Arena Pharmaceuticals, Inc., priority 2014, dated 2025).

Experiment: Phase 1 multiple ascending dose, dose titration study with healthy subjects (adverse events, tolerated dose)
Format: in vivo, human
Conditions: for Adverse Events (no. of subjects) leading to Decrease of Dose: Abdominal pain / Adverse Events (no. of subjects) leading to Decrease of Dose: Arthralgia / Adverse Events (no. of subjects) leading to Decrease of Dose: Chest discomfort / Adverse Events (no. of subjects) leading to Decrease of Dose: Chest pain / Adverse Events (no. of subjects) leading to Decrease of Dose: Diarrhoea / Adverse Events (no. of subjects) leading to Decrease of Dose: Dizziness / Adverse Events (no. of subjects) leading to Decrease of Dose: Headache / Adverse Events (no. of subjects) leading to Decrease of Dose: Jaw pain / Adverse Events (no. of subjects) leading to Decrease of Dose: Myalgia / Adverse Events (no. of subjects) leading to Decrease of Dose: Nausea / Adverse Events (no. of subjects) leading to Decrease of Dose: Palpitations / Adverse Events (no. of subjects) leading to Decrease of Dose: Priapism / Adverse Events (no. of subjects) leading to Decrease of Dose: Vomiting: Cohort 3, twice daily
Protocol: This study was a phase 1, randomized, double-blind, placebo-controlled, multiple-dose, dose titration study. A titration interval of 6 days was employed, with each dose being administered for at least 5 days. One goal was to determine the effect of dose titration on adverse effects.
In each of two subject cohorts, Cohort 1 and Cohort 2, subjects were treated at each dose level for duration of 5 days with exception of the last dose level which included 7 days of treatment.
The protocol was amended to provide for an additional cohort, Cohort 3, in order to evaluate a different dose escalation regimen, as disclosed below.
Cohorts 1 and 2: Two groups of 15 subjects were enrolled and randomized to receive placebo (5 subjects per Cohort) or a starting dose of 0.05 mg Compound 1 (10 subjects per Cohort) on Day I. Once daily (q.d.) dosing continued through 5 days. If tolerated, the next dose escalation (placebo or 0.1 mg q.d. Compound 1) occurred on Day 6 and this dose was administered daily through Day 10.
Subsequent dose escalations were to occur in the same manner every 6th day for up to 3 additional dose escalations if tolerated (placebo or 0.2, 0.3, and 0.4 mg Compound 1) with the final dose maintained for a duration of 7 days. The dose could be decreased (“de-escalated”) or increased (“re-escalated”) based on assessment of safety and tolerability.
Cohort 3: One group of 25 subjects (S placebo and 20 active) were enrolled and randomized to receive a starting dose of 0.01 mg Compound 1 twice daily or placebo on Day 1. Twice daily dosing continued through 5 days. If tolerated, the next dose escalation (placebo or Compound 1 0.02 mg twice daily) occurred on Day 6 and this dose was administered daily through Day 10. Subsequent dose escalations were to occur in the same manner every 6th day for up to 4 additional dose escalations if tolerated (placebo or 0.03, 0.04. 0.05, and 0.07 mg twice daily Compound 1). The dose could be decreased (“de-escalated”) or increased (“re-escalated”) based on assessment of safety and tolerability. The doses tested in this cohort were 0.01, 0.02, 0.03, 0.04, 0.05, and 0.07 mg administered twice daily for a total daily dose of 0.02, 0.04, 0.06, 0.08, 0.1, and 0.14 mg, respectively.
Compound 1 capsules were provided as 0.01 mg (all Cohorts) and 0.1 mg (Cohorts 1 and 2 only) strengths.

O=C(O)COC[C@H]1CC[C@H](COC(=O)N(c2ccccc2)c2ccc(Cl)cc2)CC1 [Compound 1, 2-(((1r,4r)-4-(((4-chlorophenyl)(phenyl)carbamoyloxy)methyl)cyclohexyl)methoxy)acetic acid]
0.06 mg-6 subjects: Subjects with Final Compound 1 Total Daily Dose of 0.06 mg (Cohort 3)
6 subjects: Adverse Events (no. of subjects) leading to Decrease of Dose: Headache (0.02 mg (N = 20))
0.10 mg-6 subjects: Subjects with Final Compound 1 Total Daily Dose of 0.10 mg (Cohort 3)
3 subjects: Adverse Events (no. of subjects) leading to Decrease of Dose: Nausea (0.02 mg (N = 20))
0.10 mg-8 subjects: Subjects who received 0.10 mg as highest dose for at least 3 days (Cohort 3)
0.14 mg-3 subjects: Subjects who received 0.14 mg as highest dose for at least 3 days (Cohort 3)
2 subjects: Adverse Events (no. of subjects) leading to Decrease of Dose: Myalgia (0.02 mg (N = 20)) | Adverse Events (no. of subjects) leading to Decrease of Dose: Dizziness (0.04 mg (N = 12))
0 subjects: Adverse Events (no. of subjects) leading to Decrease of Dose: Abdominal pain (0.01 mg (N = 20)) | Adverse Events (no. of subjects) leading to Decrease of Dose: Arthralgia (0.01 mg (N = 20)) | Adverse Events (no. of subjects) leading to Decrease of Dose: Chest discomfort (0.01 mg (N = 20)) | Adverse Events (no. of subjects) leading to Decrease of Dose: Chest pain (0.01 mg (N = 20)) | Adverse Events (no. of subjects) leading to Decrease of Dose: Diarrhoea (0.01 mg (N = 20)) | Adverse Events (no. of subjects) leading to Decrease of Dose: Dizziness (0.01 mg (N = 20)) | Adverse Events (no. of subjects) leading to Decrease of Dose: Jaw pain (0.01 mg (N = 20)) | Adverse Events (no. of subjects) leading to Decrease of Dose: Nausea (0.01 mg (N = 20)) | Adverse Events (no. of subjects) leading to Decrease of Dose: Palpitations (0.01 mg (N = 20)) | Adverse Events (no. of subjects) leading to Decrease of Dose: Priapism (0.01 mg (N = 20)) | Adverse Events (no. of subjects) leading to Decrease of Dose: Vomiting (0.01 mg (N = 20)) | Adverse Events (no. of subjects) leading to Decrease of Dose: Abdominal pain (0.02 mg (N = 20)) | Adverse Events (no. of subjects) leading to Decrease of Dose: Chest discomfort (0.02 mg (N = 20)) | Adverse Events (no. of subjects) leading to Decrease of Dose: Dizziness (0.02 mg (N = 20)) | Adverse Events (no. of subjects) leading to Decrease of Dose: Jaw pain (0.02 mg (N = 20)) | Adverse Events (no. of subjects) leading to Decrease of Dose: Priapism (0.02 mg (N = 20)) | Adverse Events (no. of subjects) leading to Decrease of Dose: Arthralgia (0.03 mg (N = 20)) | Adverse Events (no. of subjects) leading to Decrease of Dose: Chest pain (0.03 mg (N = 20)) | Adverse Events (no. of subjects) leading to Decrease of Dose: Dizziness (0.03 mg (N = 20)) | Adverse Events (no. of subjects) leading to Decrease of Dose: Jaw pain (0.03 mg (N = 20)) | Adverse Events (no. of subjects) leading to Decrease of Dose: Palpitations (0.03 mg (N = 20)) | Adverse Events (no. of subjects) leading to Decrease of Dose: Vomiting (0.03 mg (N = 20)) | Adverse Events (no. of subjects) leading to Decrease of Dose: Abdominal pain (0.04 mg (N = 12)) | Adverse Events (no. of subjects) leading to Decrease of Dose: Arthralgia (0.04 mg (N = 12)) | Adverse Events (no. of subjects) leading to Decrease of Dose: Chest discomfort (0.04 mg (N = 12)) | Adverse Events (no. of subjects) leading to Decrease of Dose: Chest pain (0.04 mg (N = 12)) | Adverse Events (no. of subjects) leading to Decrease of Dose: Diarrhoea (0.04 mg (N = 12)) | Adverse Events (no. of subjects) leading to Decrease of Dose: Jaw pain (0.04 mg (N = 12)) | Adverse Events (no. of subjects) leading to Decrease of Dose: Myalgia (0.04 mg (N = 12)) | Adverse Events (no. of subjects) leading to Decrease of Dose: Nausea (0.04 mg (N = 12)) | Adverse Events (no. of subjects) leading to Decrease of Dose: Palpitations (0.04 mg (N = 12)) | Adverse Events (no. of subjects) leading to Decrease of Dose: Priapism (0.04 mg (N = 12)) | Adverse Events (no. of subjects) leading to Decrease of Dose: Vomiting (0.04 mg (N = 12)) | Adverse Events (no. of subjects) leading to Decrease of Dose: Arthralgia (0.05 mg (N = 8)) | Adverse Events (no. of subjects) leading to Decrease of Dose: Chest discomfort (0.05 mg (N = 8)) | Adverse Events (no. of subjects) leading to Decrease of Dose: Chest pain (0.05 mg (N = 8)) | Adverse Events (no. of subjects) leading to Decrease of Dose: Diarrhoea (0.05 mg (N = 8)) | Adverse Events (no. of subjects) leading to Decrease of Dose: Headache (0.05 mg (N = 8)) | Adverse Events (no. of subjects) leading to Decrease of Dose: Jaw pain (0.05 mg (N = 8)) | Adverse Events (no. of subjects) leading to Decrease of Dose: Myalgia (0.05 mg (N = 8)) | Adverse Events (no. of subjects) leading to Decrease of Dose: Nausea (0.05 mg (N = 8)) | Adverse Events (no. of subjects) leading to Decrease of Dose: Palpitations (0.05 mg (N = 8)) | Adverse Events (no. of subjects) leading to Decrease of Dose: Priapism (0.05 mg (N = 8)) | Adverse Events (no. of subjects) leading to Decrease of Dose: Vomiting (0.05 mg (N = 8)) | Adverse Events (no. of subjects) leading to Decrease of Dose: Abdominal pain (0.07 mg (N = 4)) | Adverse Events (no. of subjects) leading to Decrease of Dose: Chest discomfort (0.07 mg (N = 4)) | Adverse Events (no. of subjects) leading to Decrease of Dose: Chest pain (0.07 mg (N = 4)) | Adverse Events (no. of subjects) leading to Decrease of Dose: Diarrhoea (0.07 mg (N = 4)) | Adverse Events (no. of subjects) leading to Decrease of Dose: Dizziness (0.07 mg (N = 4)) | Adverse Events (no. of subjects) leading to Decrease of Dose: Myalgia (0.07 mg (N = 4)) | Adverse Events (no. of subjects) leading to Decrease of Dose: Palpitations (0.07 mg (N = 4))
0.14 mg-2 subjects: Subjects with Final Compound 1 Total Daily Dose of 0.14 mg (Cohort 3)
1 subjects: Adverse Events (no. of subjects) leading to Decrease of Dose: Headache (0.01 mg (N = 20)) | Adverse Events (no. of subjects) leading to Decrease of Dose: Myalgia (0.01 mg (N = 20)) | Adverse Events (no. of subjects) leading to Decrease of Dose: Arthralgia (0.02 mg (N = 20)) | Adverse Events (no. of subjects) leading to Decrease of Dose: Chest pain (0.02 mg (N = 20)) | Adverse Events (no. of subjects) leading to Decrease of Dose: Diarrhoea (0.02 mg (N = 20)) | Adverse Events (no. of subjects) leading to Decrease of Dose: Palpitations (0.02 mg (N = 20)) | Adverse Events (no. of subjects) leading to Decrease of Dose: Vomiting (0.02 mg (N = 20)) | Adverse Events (no. of subjects) leading to Decrease of Dose: Abdominal pain (0.03 mg (N = 20)) | Adverse Events (no. of subjects) leading to Decrease of Dose: Chest discomfort (0.03 mg (N = 20)) | Adverse Events (no. of subjects) leading to Decrease of Dose: Diarrhoea (0.03 mg (N = 20)) | Adverse Events (no. of subjects) leading to Decrease of Dose: Headache (0.03 mg (N = 20)) | Adverse Events (no. of subjects) leading to Decrease of Dose: Myalgia (0.03 mg (N = 20)) | Adverse Events (no. of subjects) leading to Decrease of Dose: Nausea (0.03 mg (N = 20)) | Adverse Events (no. of subjects) leading to Decrease of Dose: Priapism (0.03 mg (N = 20)) | Adverse Events (no. of subjects) leading to Decrease of Dose: Headache (0.04 mg (N = 12)) | Adverse Events (no. of subjects) leading to Decrease of Dose: Abdominal pain (0.05 mg (N = 8)) | Adverse Events (no. of subjects) leading to Decrease of Dose: Dizziness (0.05 mg (N = 8)) | Adverse Events (no. of subjects) leading to Decrease of Dose: Arthralgia (0.07 mg (N = 4)) | Adverse Events (no. of subjects) leading to Decrease of Dose: Headache (0.07 mg (N = 4)) | Adverse Events (no. of subjects) leading to Decrease of Dose: Jaw pain (0.07 mg (N = 4)) | Adverse Events (no. of subjects) leading to Decrease of Dose: Nausea (0.07 mg (N = 4))
0.08 mg-2 subjects: Subjects with Final Compound 1 Total Daily Dose of 0.08 mg (Cohort 3)
0.06 mg-19 subjects: Subjects who received 0.06 mg as highest dose for at least 3 days (Cohort 3)
0.08 mg-11 subjects: Subjects who received 0.08 mg as highest dose for at least 3 days (Cohort 3)
0.04 mg-4 subjects: Subjects with Final Compound 1 Total Daily Dose of 0.04 mg (Cohort 3)
0.04 mg-20 subjects: Subjects who received 0.04 mg as highest dose for at least 3 days (Cohort 3)
